Laboratory results published in patent US12187699B2, “GSPT1 compounds and methods of use of the novel compounds” (BRISTOL-MYERS SQUIBB COMPANY, priority 2022, dated 2025).

Molecular target: T1, ePL-tagged GSPT1 (Homo sapiens, UniProt P15170+Q96SW2)
T1 construct: expressed in transfected cells; host or cells: DF15 multiple myeloma cells
Assay: GSPT1 DiscoverX Degradation Assay
Assay type: cell-based
Details: DF15 multiple myeloma cells expressing ePL-tagged GSPT1; twenty hours; minimum of percent of control curve (Ataluren control Y constant=0, DMSO control = Y max)
Experimental: GSPT1 DiscoverX Degradation Assay.
Compounds were dispensed by an acoustic dispenser (ATS Acoustic Transfer System from EDC Biosystems) into a 384-well in a 10 pt dose response curve using 3 fold dilutions starting at 10 uM and going down to 0.0005 uM in DMSO. A DMSO control is added to the assay. […] Assay plates were incubated at 37° C. with 5% CO2 for twenty hours. After incubation, 25 μl of the InCELL Hunter™ Detection Reagent Working Solution (DiscoverX, cat #96-0002, Fremont, CA) was added to each well and incubated at room temperature for 30 minutes protected from light. After 30 minutes, luminescence was read on a PHERAstar luminometer (Cary, NC).
The minimum Y is reference to the Y constant. In the GSPT1 degradation assay, we use Ataluren® (luciferase inhibitor) as the control with a Y constant=0. The maximum limit is the Y max DMSO control. All percent of control GSPT1 degradation curves were processed and evaluated using Activity Base (IDBS).

T1 sequence (P15170 whole entry): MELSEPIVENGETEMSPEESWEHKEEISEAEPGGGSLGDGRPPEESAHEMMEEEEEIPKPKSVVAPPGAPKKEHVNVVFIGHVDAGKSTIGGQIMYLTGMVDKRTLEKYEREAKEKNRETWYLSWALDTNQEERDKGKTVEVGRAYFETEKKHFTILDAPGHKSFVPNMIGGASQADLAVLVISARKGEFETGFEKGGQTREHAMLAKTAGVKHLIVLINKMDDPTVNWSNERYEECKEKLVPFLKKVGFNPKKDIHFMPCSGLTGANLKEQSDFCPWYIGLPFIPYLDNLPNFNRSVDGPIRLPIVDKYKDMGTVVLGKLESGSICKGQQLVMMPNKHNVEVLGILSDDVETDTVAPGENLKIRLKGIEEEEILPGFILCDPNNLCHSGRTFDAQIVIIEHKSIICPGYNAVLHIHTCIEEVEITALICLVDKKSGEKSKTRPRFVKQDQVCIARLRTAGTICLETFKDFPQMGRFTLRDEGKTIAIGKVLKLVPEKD
T1 sequence (Q96SW2 whole entry): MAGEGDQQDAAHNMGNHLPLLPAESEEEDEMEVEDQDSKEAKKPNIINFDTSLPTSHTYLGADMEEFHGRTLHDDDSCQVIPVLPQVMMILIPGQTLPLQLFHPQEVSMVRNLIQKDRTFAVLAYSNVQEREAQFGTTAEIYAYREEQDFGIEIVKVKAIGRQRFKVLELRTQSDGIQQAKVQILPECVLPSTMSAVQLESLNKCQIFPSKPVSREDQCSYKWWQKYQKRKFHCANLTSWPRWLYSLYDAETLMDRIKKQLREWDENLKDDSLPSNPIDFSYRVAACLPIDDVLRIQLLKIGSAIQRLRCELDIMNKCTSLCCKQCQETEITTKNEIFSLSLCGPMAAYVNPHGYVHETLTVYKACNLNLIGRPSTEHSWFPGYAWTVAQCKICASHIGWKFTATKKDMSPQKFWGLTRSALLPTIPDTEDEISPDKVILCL
T1 sequence (Q16531 whole entry partner): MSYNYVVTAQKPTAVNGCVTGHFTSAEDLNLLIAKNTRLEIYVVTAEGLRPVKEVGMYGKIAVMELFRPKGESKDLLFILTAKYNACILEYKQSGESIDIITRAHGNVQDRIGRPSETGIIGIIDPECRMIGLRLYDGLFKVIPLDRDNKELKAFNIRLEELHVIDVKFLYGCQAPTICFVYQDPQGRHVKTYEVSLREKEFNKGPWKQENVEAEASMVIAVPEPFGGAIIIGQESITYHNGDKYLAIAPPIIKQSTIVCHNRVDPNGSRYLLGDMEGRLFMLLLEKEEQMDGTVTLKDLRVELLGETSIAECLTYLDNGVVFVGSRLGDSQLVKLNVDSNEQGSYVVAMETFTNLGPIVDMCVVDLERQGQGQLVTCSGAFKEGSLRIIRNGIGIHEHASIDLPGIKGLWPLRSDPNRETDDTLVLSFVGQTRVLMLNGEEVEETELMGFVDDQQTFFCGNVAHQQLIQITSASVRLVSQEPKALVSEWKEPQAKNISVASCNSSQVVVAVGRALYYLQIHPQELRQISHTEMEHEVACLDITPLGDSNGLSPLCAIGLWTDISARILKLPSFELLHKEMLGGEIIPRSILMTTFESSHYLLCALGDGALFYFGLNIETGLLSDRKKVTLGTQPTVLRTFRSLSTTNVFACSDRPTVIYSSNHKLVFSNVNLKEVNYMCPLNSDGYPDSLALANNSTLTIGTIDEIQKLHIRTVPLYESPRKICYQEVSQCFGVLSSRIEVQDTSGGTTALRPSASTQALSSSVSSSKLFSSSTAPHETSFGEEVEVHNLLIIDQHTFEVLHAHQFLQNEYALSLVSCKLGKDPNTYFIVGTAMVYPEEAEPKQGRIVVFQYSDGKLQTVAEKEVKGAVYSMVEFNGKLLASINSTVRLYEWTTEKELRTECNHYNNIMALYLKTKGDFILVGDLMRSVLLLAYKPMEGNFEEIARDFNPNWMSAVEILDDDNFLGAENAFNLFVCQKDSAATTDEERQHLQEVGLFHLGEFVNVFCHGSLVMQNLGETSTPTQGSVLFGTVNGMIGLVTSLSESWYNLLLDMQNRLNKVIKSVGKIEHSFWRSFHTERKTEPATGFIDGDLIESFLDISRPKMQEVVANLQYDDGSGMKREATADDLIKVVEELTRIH

Row | Compound | GSPT1 Degradation Ymin
1 | NCc1ccccc1COc1ccc(NC(=O)NCc2ccc3c(c2)CN(C2CCC(=O)NC2=O)C3=O)cc1 (stereo not drawn) [Example 3, 1-(4-((2-(aminomethyl)benzyl)oxy)phenyl)-3-((2-(2,6-dioxopiperidin-3-yl)-1-oxoisoindolin-5-yl)methyl)urea] | 7.30
2 | NCc1ccc(COc2ccc(NC(=O)NCc3ccc4c(c3)CN(C3CCC(=O)NC3=O)C4=O)cc2)c(F)c1 (stereo not drawn) [Example 11, 1-(4-{[4-(aminomethyl)-2-fluorophenyl]methoxy}phenyl)-3-{[2-(2,6-dioxopiperidin-3-yl)-1-oxo-2,3-dihydro-1H-isoindol-5-yl]methyl}urea] | 6.71
3 | Cc1cc(CN)ccc1COc1ccc(NC(=O)NCc2ccc3c(c2)CN(C2CCC(=O)NC2=O)C3=O)cc1 (stereo not drawn) [Example 12, 1-(4-{[4-(aminomethyl)-2-methylphenyl]methoxy}phenyl)-3-{[2-(2,6-dioxopiperidin-3-yl)-1-oxo-2,3-dihydro-1H-isoindol-5-yl]methyl}urea] | 5.39
4 | NCc1ccc(COc2ccc(NC(=O)NCc3ccc4c(c3)CN(C3CCC(=O)NC3=O)C4=O)cc2)nc1 (stereo not drawn) [Example 13, 1-(4-{[5-(aminomethyl)pyridin-2-yl]methoxy}phenyl)-3-{[2-(2,6-dioxopiperidin-3-yl)-1-oxo-2,3-dihydro-1H-isoindol-5-yl]methyl}urea] | 6.75
5 | NCc1ccc(COc2ccc(NC(=O)NCc3ccc4c(c3)CN(C3CCC(=O)NC3=O)C4=O)cc2)cn1 (stereo not drawn) [Example 14, 1-(4-{[6-(aminomethyl)pyridin-3-yl]methoxy}phenyl)-3-{[2-(2,6-dioxopiperidin-3-yl)-1-oxo-2,3-dihydro-1H-isoindol-5-yl]methyl}urea] | 5.83
6 | NCc1cnc(COc2ccc(NC(=O)NCc3ccc4c(c3)CN(C3CCC(=O)NC3=O)C4=O)cc2)nc1 (stereo not drawn) [Example 15, 1-(4-{[5-(aminomethyl)pyrimidin-2-yl]methoxy}phenyl)-3-{[2-(2,6-dioxopiperidin-3-yl)-1-oxo-2,3-dihydro-1H-isoindol-5-yl]methyl}urea] | 3.10
7 | NCc1ccc(COc2ccc(NC(=O)NCc3ccc4c(c3)CN(C3CCC(=O)NC3=O)C4=O)cc2)nn1 (stereo not drawn) [Example 16, 1-(4-{[6-(aminomethyl)pyridazin-3-yl]methoxy}phenyl)-3-{[2-(2,6-dioxopiperidin-3-yl)-1-oxo-2,3-dihydro-1H-isoindol-5-yl]methyl}urea] | 12.67
8 | Cc1cc(NC(=O)NCc2ccc3c(c2)CN(C2CCC(=O)NC2=O)C3=O)ccc1OCc1ccc(CN)cc1 (stereo not drawn) [Example 17, 1-(4-{[4-(aminomethyl)phenyl]methoxy}-3-methylphenyl)-3-{[2-(2,6-dioxopiperidin-3-yl)-1-oxo-2,3-dihydro-1H-isoindol-5-yl]methyl}urea] | 15.91
9 | NCc1ccc(COc2ccc(NC(=O)NCc3ccc4c(c3)CN(C3CCC(=O)NC3=O)C4=O)cc2F)cc1 (stereo not drawn) [Example 18, 1-(4-{[4-(aminomethyl)phenyl]methoxy}-3-fluorophenyl)-3-{[2-(2,6-dioxopiperidin-3-yl)-1-oxo-2,3-dihydro-1H-isoindol-5-yl]methyl}urea] | 54.45
10 | NCc1ccc(COc2ccc(NC(=O)NCc3ccc4c(c3)CN(C3CCC(=O)NC3=O)C4=O)nn2)cc1 (stereo not drawn) [Example 19, 1-(6-{[4-(aminomethyl)phenyl]methoxy}pyridazin-3-yl)-3-{[2-(2,6-dioxopiperidin-3-yl)-1-oxo-2,3-dihydro-1H-isoindol-5-yl]methyl}urea] | 6.55
11 | NCc1ccc(COc2ccc(NC(=O)NCc3ccc4c(c3)CN(C3CCC(=O)NC3=O)C4=O)cn2)cc1 (stereo not drawn) [Example 20, 1-(6-{[4-(aminomethyl)phenyl]methoxy}pyridin-3-yl)-3-{[2-(2,6-dioxopiperidin-3-yl)-1-oxo-2,3-dihydro-1H-isoindol-5-yl]methyl}urea] | 7.50
12 | CCc1cc(CN)ccc1COc1ccc(NC(=O)NCc2ccc3c(c2)CN(C2CCC(=O)NC2=O)C3=O)cc1 (stereo not drawn) [Example 21, 1-(4-{[4-(aminomethyl)-2-ethylphenyl]methoxy}phenyl)-3-{[2-(2,6-dioxopiperidin-3-yl)-1-oxo-2,3-dihydro-1H-isoindol-5-yl]methyl}urea] | 10.44
13 | CCCc1cc(CN)ccc1COc1ccc(NC(=O)NCc2ccc3c(c2)CN(C2CCC(=O)NC2=O)C3=O)cc1 (stereo not drawn) [Example 22, 1-(4-{[4-(aminomethyl)-2-n-propylphenyl]methoxy}phenyl)-3-{[2-(2,6-dioxopiperidin-3-yl)-1-oxo-2,3-dihydro-1H-isoindol-5-yl]methyl}urea] | 9.46
14 | COc1cc(CN)ccc1COc1ccc(NC(=O)NCc2ccc3c(c2)CN(C2CCC(=O)NC2=O)C3=O)cc1 (stereo not drawn) [Example 23, 1-(4-{[4-(aminomethyl)-2-methoxyphenyl]methoxy}phenyl)-3-{[2-(2,6-dioxopiperidin-3-yl)-1-oxo-2,3-dihydro-1H-isoindol-5-yl]methyl}urea] | 8.85
15 | CC(C)Oc1cc(CN)ccc1COc1ccc(NC(=O)NCc2ccc3c(c2)CN(C2CCC(=O)NC2=O)C3=O)cc1 (stereo not drawn) [Example 24, 1-(4-{[4-(aminomethyl)-2-(propan-2-yloxy)phenyl]methoxy}phenyl)-3-{[2-(2,6-dioxopiperidin-3-yl)-1-oxo-2,3-dihydro-1H-isoindol-5-yl]methyl}urea] | 10.04
16 | NCc1ccc(COc2ccc(NC(=O)NCc3ccc4c(c3)CN(C3CCC(=O)NC3=O)C4=O)cc2)c(Cl)c1 (stereo not drawn) [Example 25, 1-(4-{[4-(aminomethyl)-2-chlorophenyl]methoxy}phenyl)-3-{[2-(2,6-dioxopiperidin-3-yl)-1-oxo-2,3-dihydro-1H-isoindol-5-yl]methyl}urea] | 5.50
17 | NCc1ccc(COc2ccc(NC(=O)NCc3ccc4c(c3)CN(C3CCC(=O)NC3=O)C4=O)cc2)c(OC2COC2)c1 (stereo not drawn) [Example 26, 1-(4-{[4-(aminomethyl)-2-(oxetan-3-yloxy)phenyl]methoxy}phenyl)-3-{[2-(2,6-dioxopiperidin-3-yl)-1-oxo-2,3-dihydro-1H-isoindol-5-yl]methyl}urea] | 6.92
18 | NCc1ccc(COc2ccc(NC(=O)NCc3ccc4c(c3)CN(C3CCC(=O)NC3=O)C4=O)cc2)c(C2CC2)c1 (stereo not drawn) [Example 27, 1-(4-{[4-(aminomethyl)-2-cyclopropylphenyl]methoxy}phenyl)-3-{[2-(2,6-dioxopiperidin-3-yl)-1-oxo-2,3-dihydro-1H-isoindol-5-yl]methyl}urea] | 6.15

Other lines, results leading:

Row | GSPT1 Degradation Ymin | Compound
19 | 3.00 | O=C1CCC(N2Cc3cc(CNC(=O)Nc4ccc(OCc5ccc(CO)cc5)cc4)ccc3C2=O)C(=O)N1 (stereo not drawn) [Example 1, 1-((2-(2,6-dioxopiperidin-3-yl)-1-oxoisoindolin-5-yl)methyl)-3-(4-((4-(hydroxymethyl)benzyl)oxy)phenyl)urea]
20 | 4.34 | NCc1ccc(COc2ccc(NC(=O)NCc3ccc4c(c3)CN(C3CCC(=O)NC3=O)C4=O)cc2)cc1 (stereo not drawn) [Example 2, 1-[4-[[4-(aminomethyl)phenyl]methoxy]phenyl]-3-[[2-(2,6-dioxo-3-piperidyl)-1-oxo-isoindolin-5-yl]methyl]urea]
21 | 6.80 | NCc1cccc(COc2ccc(NC(=O)NCc3ccc4c(c3)CN(C3CCC(=O)NC3=O)C4=O)cc2)c1 (stereo not drawn) [Example 4, 1-(4-((3-(aminomethyl)benzyl)oxy)phenyl)-3-((2-(2,6-dioxopiperidin-3-yl)-1-oxoisoindolin-5-yl)methyl)urea]
22 | 3.00 | Nc1cccc(COc2ccc(NC(=O)NCc3ccc4c(c3)CN(C3CCC(=O)NC3=O)C4=O)cc2)c1 (stereo not drawn) [Example 5, 1-(4-((3-aminobenzyl)oxy)phenyl)-3-((2-(2,6-dioxopiperidin-3-yl)-1-oxoisoindolin-5-yl)methyl)urea]
23 | 3.00 | O=C1CCC(N2Cc3cc(CNC(=O)Nc4ccc(OCc5ccccc5)cc4)ccc3C2=O)C(=O)N1 (stereo not drawn) [Example 6, 1-[4-(benzyloxy)phenyl]-3-{[2-(2,6-dioxopiperidin-3-yl)-1-oxo-2,3-dihydro-1H-isoindol-5-yl]methyl}urea]
24 | 4.00 | O=C1CCC(N2Cc3cc(CNC(=O)Nc4ccc(OCc5cccc(CO)c5)cc4)ccc3C2=O)C(=O)N1 (stereo not drawn) [Example 7, 1-((2-(2,6-dioxopiperidin-3-yl)-1-oxoisoindolin-5-yl)methyl)-3-(4-((3-(hydroxymethyl)benzyl)oxy)phenyl)urea]
25 | 4.00 | O=C1CCC(N2Cc3cc(CNC(=O)Nc4ccc(OCc5ccccc5CO)cc4)ccc3C2=O)C(=O)N1 (stereo not drawn) [Example 8, 1-((2-(2,6-dioxopiperidin-3-yl)-1-oxoisoindolin-5-yl)methyl)-3-(4-((2-(hydroxymethyl)benzyl)oxy)phenyl)urea]
26 | 3.50 | O=C1CCC(N2Cc3cc(CNC(=O)Nc4ccc(OCc5ccccc5O)cc4)ccc3C2=O)C(=O)N1 (stereo not drawn) [Example 9, 1-((2-(2,6-dioxopiperidin-3-yl)-1-oxoisoindolin-5-yl)methyl)-3-(4-((2-hydroxybenzyl)oxy)phenyl)urea]
27 | 4.00 | O=C1CCC(N2Cc3cc(CNC(=O)Nc4ccc(OCc5ccccc5O)cc4)ccc3C2=O)C(=O)N1 (stereo not drawn) [Example 10, 1-((2-(2,6-dioxopiperidin-3-yl)-1-oxoisoindolin-5-yl)methyl)-3-(4-((2-hydroxybenzyl)oxy)phenyl)urea]
